Data: patent publication US8288385B2, “6-(3-aza-bicyclo[3.1.0]hex-3-yl)-2-phenyl-pyrimidines” (Actelion Pharmaceuticals Ltd., priority 2009, dated 2012)
pIC50: −log10 of the molar value.

Molecular target: T1, human P2Y12 receptor (Homo sapiens, UniProt Q9H244)
T1 construct: expressed in transfected cells; host or cells: Chinese Hamster Ovary (CHO) cells
Assay: P2Y12 receptor binding assay
Settings: CHO cells with recombinant expression of the human P2Y12 receptor; tritium-labeled 2-methyl-S-ADP; RT, 2 hours
Description: P2Y12 Receptor Binding Assay
Chinese Hamster Ovary (CHO) cells with recombinant expression of the human P2Y12 receptor were cultured in 24 well cell-culture plates. Cells were washed three times with binding buffer (50 mM Tris pH 7.4, 100 mM NaCl, 1 mM EDTA, 0.5% BSA). The cells were then incubated with 0.5 ml per well binding buffer containing tritium-labeled 2-methyl-thio-adenosine 5′-diphosphate (2-methyl-S-ADP) (between 100,000 and 300,000 dpm per well) and various concentrations of test compounds. After incubation at RT for 2 hours, cells were washed three times with binding buffer. Then, cells were solubilized by addition of 0.5 ml solubilization buffer (SDS, NaOH, EDTA). The content of each well was then transferred into beta-counter vials and 2.0 ml of Ultima Gold Scintillation liquid was added.

T1 sequence (Q9H244 whole entry): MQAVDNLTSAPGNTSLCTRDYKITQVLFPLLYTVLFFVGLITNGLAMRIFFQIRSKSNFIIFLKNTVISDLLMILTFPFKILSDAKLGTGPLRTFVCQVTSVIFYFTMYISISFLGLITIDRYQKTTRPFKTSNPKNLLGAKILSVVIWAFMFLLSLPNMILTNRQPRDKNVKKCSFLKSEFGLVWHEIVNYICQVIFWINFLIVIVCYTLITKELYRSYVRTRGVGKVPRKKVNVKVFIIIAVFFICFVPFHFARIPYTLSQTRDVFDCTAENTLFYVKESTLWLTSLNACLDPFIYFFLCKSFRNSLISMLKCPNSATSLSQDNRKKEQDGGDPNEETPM

SMILES	pIC50
CCCCOC(=O)N1CCN(C(=O)[C@H](CP(=O)(O)O)NC(=O)c2cc(N3C[C@@H]4[C@H](C3)[C@H]4C(=O)OCC)nc(-c3ccccc3)n2)CC1 [Example 51, (1α,5α,6α)-3-{6-[(R)-2-(4-Butoxycarbonyl-piperazin-1-yl)-2-oxo-1-phosphonomethyl-ethylcarbamoyl]-2-phenyl-pyrimidin-4-yl}-3-aza-bicyclo[3.1.0]hexane-6-carboxylic acid ethyl ester]	8.60
CCCCOC(=O)N1CCN(C(=O)C(NC(=O)c2cc(N3CC4C(C3)C4C(=O)O)nc(-c3ccccc3)n2)C(C)C)CC1C [Example 31, (1α,5α,6β)-3-{6-[(S)-1-((R)-4-Butoxycarbonyl-3-methyl-piperazine-1-carbonyl)-2-methyl-propylcarbamoyl]-2-phenyl-pyrimidin-4-yl}-3-aza-bicyclo[3.1.0]hexane-6-carboxylic acid]	7.28
CCCCOC(=O)N1CCN(C(=O)[C@@H](NC(=O)c2cc(N3C[C@@H]4[C@H](C3)[C@H]4C(N)=O)nc(-c3ccccc3)n2)C(C)C)CC1 [Example 17, 4-((S)-2-{[6-((1α,5α,6α)-6-Carbamoyl-3-aza-bicyclo[3.1.0]hex-3-yl)-2-phenyl-pyrimidine-4-carbonyl]-amino}-3-methyl-butyryl)-piperazine-1-carboxylic acid butyl ester]	7.89
CCCCOC(=O)N1CCN(C(=O)[C@@H](NC(=O)c2cc(N3C[C@@H]4[C@H](C3)[C@H]4C(=O)O)nc(-c3ccccc3)n2)C(C)C)CC1 [Example 12, (1α,5α,6α)-3-{6-[(S)-1-(4-Butoxycarbonyl-piperazine-1-carbonyl)-2-methyl-propylcarbamoyl]-2-phenyl-pyrimidin-4-yl}-3-aza-bicyclo[3.1.0]hexane-6-carboxylic acid]	7.15
CCCCOC(=O)N1CCN(C(=O)[C@H](CCc2nnn[nH]2)NC(=O)c2cc(N3C[C@@H]4[C@H](C3)[C@@H]4C(=O)O)nc(-c3ccccc3)n2)CC1 [Example 49, (1α,5α,6β)-3-{6-[(S)-1-(4-Butoxycarbonyl-piperazine-1-carbonyl)-3-(1H-tetrazol-5-yl)-propylcarbamoyl]-2-phenyl-pyrimidin-4-yl}-3-aza-bicyclo[3.1.0]hexane-6-carboxylic acid]	> 8.49
CCCCOC(=O)N1CCN(C(=O)[C@H](C)NC(=O)c2cc(N3C[C@@H]4[C@H](C3)[C@H]4C(=O)O)nc(-c3ccccc3)n2)CC1 [Example 34, (1α,5α,6α)-3-{6-[(S)-2-(4-Butoxycarbonyl-piperazin-1-yl)-1-methyl-2-oxo-ethylcarbamoyl]-2-phenyl-pyrimidin-4-yl}-3-aza-bicyclo[3.1.0]hexane-6-carboxylic acid]	6.64
CCCCOC(=O)N1CCN(C(=O)[C@H](CCC(=O)O)NC(=O)c2cc(N3C[C@@H]4[C@H](C3)[C@@H]4NC(=O)OC(C)(C)C)nc(-c3ccccc3)n2)CC1 [Example 6, 4-((S)-2-{[6-((1α,5α,6β)-6-tert-Butoxycarbonylamino-3-aza-bicyclo[3.1.0]hex-3-yl)-2-phenyl-pyrimidine-4-carbonyl]-amino}-4-carboxy-butyryl)-piperazine-1-carboxylic acid butyl ester]	8.14
CCCCOC(=O)N1CCN(C(=O)[C@H](CCC(=O)O)NC(=O)c2cc(N3C[C@@H]4[C@@H](N)[C@@H]4C3)nc(-c3ccccc3)n2)CC1 [Example 7]	8.12
CCCCOC(=O)N1CCN(C(=O)[C@@H](NC(=O)c2cc(N3C[C@@H]4[C@H](C3)[C@@H]4C(=O)O)nc(-c3ccc(F)cc3)n2)C(C)C)CC1 [Example 28, (1α,5α,6β)-3-[6-[(S)-1-(4-Butoxycarbonyl-piperazine-1-carbonyl)-2-methyl-propylcarbamoyl]-2-(4-fluoro-phenyl)-pyrimidin-4-yl]-3-aza-bicyclo[3.1.0]hexane-6-carboxylic acid]	8.15
CCCCOC(=O)N1CCN(C(=O)[C@H](CCC(=O)O)NC(=O)c2cc(N3C[C@@H]4[C@@H](CO)[C@@H]4C3)nc(-c3ccccc3)n2)CC1 [Example 9, 4-((S)-4-Carboxy-2-{[6-((1α,5α,6α)-6-hydroxymethyl-3-aza-bicyclo[3.1.0]hex-3-yl)-2-phenyl-pyrimidine-4-carbonyl]-amino}-butyryl)-piperazine-1-carboxylic acid butyl ester]	8.10
CCCCOC(=O)N1CCN(C(=O)[C@@H](NC(=O)c2cc(N3C[C@@H]4[C@H](C3)[C@@H]4c3nnn[nH]3)nc(-c3ccccc3)n2)C(C)C)CC1 [Example 22]	7.42
